Test [1] relates to antibodies in sera from SARS patients (sera 1a, 1b, 2, 6, 37, 62, London, SARS-yellow, SARS-green). It is filed as binding, human. More on the design: Binding of serum 6 to linear peptides of protein X1 of SARS-CoV Urbani / Binding of serum 37 to linear peptides of protein X1 of SARS-CoV Urbani / Binding of serum 6 to looped/cyclic peptide (PEPSCAN-ELISA) / Binding of serum 37 to looped/cyclic peptide (PEPSCAN-ELISA) / Binding of serum 37 to looped/cyclic peptides of protein X1 of SARS-CoV Urbani / Binding of serum 6 to linear peptides of protein X2 / Binding of serum 37 to linear peptides of protein X2 / Binding of serum 37 to looped/cyclic peptides of protein X2 of SARS-CoV Urbani / Binding of serum 6 to linear peptides of protein M of SARS-CoV Urbani / Binding of serum 37 to linear peptides of protein M of SARS-CoV Urbani / Binding of serum 6 to looped/cyclic peptides of protein M of SARS-CoV Urbani / Binding of serum 37 to looped/cyclic peptides of protein M of SARS-CoV Urbani / Binding of serum 6 to linear peptides of protein X3 of SARS-CoV Urbani / Binding of serum 37 to linear peptides of protein X3 of SARS-CoV Urbani / Binding of serum 37 to looped/cyclic peptides of protein X3 of SARS-CoV Urbani / Binding of serum 6 to linear peptides of protein X4 of SARS-CoV Urbani / Binding of serum 37 to linear peptides of protein X4 of SARS-CoV Urbani / Binding of serum 37 to looped/cyclic peptides of protein X4 of SARS-CoV Urbani / Binding of serum 6 to linear peptides of protein X5 of SARS-CoV Urbani / Binding of serum 37 to linear peptides of protein X5 of SARS-CoV Urbani / Binding of serum 37 to looped/cyclic peptides of protein X5 of SARS-CoV Urbani / Binding of serum 6 to linear peptides of protein N of SARS-CoV Urbani / Binding of serum 37 to linear peptides of protein N of SARS-CoV Urbani / Binding of serum 6 to linear peptide (PEPSCAN-ELISA) / Binding of serum 1a to looped/cyclic peptides of protein N of SARS-CoV Urbani / Binding of serum 1b to looped/cyclic peptides of protein N of SARS-CoV Urbani / Binding of serum 2 to looped/cyclic peptides of protein N of SARS-CoV Urbani / Binding of serum 6 to looped/cyclic peptides of protein N of SARS-CoV Urbani / Binding of serum 37 to looped/cyclic peptides of protein N of SARS-CoV Urbani / Binding of serum 62 to looped/cyclic peptides of protein N of SARS-CoV Urbani / Binding of serum London to looped/cyclic peptides of protein N of SARS-CoV Urbani / Binding of serum SARS-green to looped/cyclic peptides of protein N of SARS-CoV Urbani: unit not given here.

In test [2] the test system is control sera (pooled serum of ten healthy LUMC hospital workers; commercial negative donor pooled serum from the Dutch bloodbank). It is filed as binding, human. More on the design: Binding of Control serum LUMC to linear peptides / Binding of Control serum Blood-bank to linear peptides / Binding of Control serum LUMC to looped peptides / Binding of Control Serum Blood-Bank to Looped peptides / Binding of Control serum LUMC to linear peptides of the protein M of SARS-CoV Urbani / Binding of Control serum Blood-bank to linear peptides of the protein M of SARS-CoV Urbani / Binding of Control serum LUMC to looped peptides of the protein M of SARS-CoV Urbani / Binding of Control Serum Blood-Bank to Looped peptides of the protein M of SARS-CoV Urbani: unit not given here.

The subject of test [3] is rabbit serum obtained by immunizing a rabbit with the SARS-CoV strain Frankfurt 1. It is filed as binding. More on the design: Binding of a rabbit serum to linear peptides / Binding of a rabbit serum to looped peptides / Rabbit serum linear peptides / Rabbit serum looped peptides / Binding of a rabbit serum to linear peptides of protein N of SARS-CoV Urbani (Rabbit serum linear peptides) / Binding of a rabbit serum to looped/cyclic peptides of protein N of SARS-CoV Urbani (Rabbit serum looped peptides): unit not given here.

For the sequence CKHKKVSTNLCTHSF, in test [1], the “Binding of serum 1a to looped/cyclic peptides of protein X2 of SARS-CoV Urbani” value turned out to be 0.7, the “Binding of serum 1b to looped/cyclic peptides of protein X2 of SARS-CoV Urbani” value was 0.7, the “Binding of serum 2 to looped/cyclic peptides of protein X2 of SARS-CoV Urbani” value was determined as 0.4 and the “Binding of serum 6 to looped/cyclic peptides of protein X2 of SARS-CoV Urbani” value is recorded as 0.3. In test [1], the “Binding of serum 37 to looped/cyclic peptides of protein X2 of SARS-CoV Urbani” value worked out at 0.6, the “Binding of serum 62 to looped/cyclic peptides of protein X2 of SARS-CoV Urbani” value came out at 0.5, the “Binding of serum London to looped/cyclic peptides of protein X2 of SARS-CoV Urbani” value is 0.3 and the “Binding of serum SARS-green to looped/cyclic peptides of protein X2 of SARS-CoV Urbani” value is listed as 0.4. Also, in test [1], the “Binding of serum SARS-yellow to looped/cyclic peptides of protein X2 of SARS-CoV Urbani” value stood at 0.9; the “Recognition of the peptide by sera of SARS-CoV infected individuals, and form (linear, looped/cyclic) in which it is recognized” value was “recognized in linear form”. In test [2], the “Binding of Control Serum Blood-Bank to Looped peptides” value is listed as 0.1, the “Binding of Control serum Blood-bank to linear peptides” value is 0.8, the “Binding of Control serum LUMC to linear peptides” value came out at 1.0 and the “Binding of Control serum LUMC to looped peptides” value came to 0.4. In test [3], the “Binding of a rabbit serum to linear peptides” value worked out at 0.3 and the “Binding of a rabbit serum to looped peptides” value is on record as 0.5.

Consider CRIIMRCWLCWKCKS, for which, in test [1], the “Binding of serum 1a to looped/cyclic peptide (PEPSCAN-ELISA)” value stood at 0.5, the “Binding of serum 1b to looped/cyclic peptide (PEPSCAN-ELISA)” value is recorded as 0.4, the “Binding of serum 2 to looped/cyclic peptide (PEPSCAN-ELISA)” value worked out at 0.5 and the “Binding of serum 6 to looped/cyclic peptide (PEPSCAN-ELISA)” value was found to be 0.5. Moreover, in test [1], the “Binding of serum 37 to looped/cyclic peptide (PEPSCAN-ELISA)” value was found to be 0.6, the “Binding of serum 62 to looped/cyclic peptide (PEPSCAN-ELISA)” value is 0.6, the “Binding of serum London to looped/cyclic peptide (PEPSCAN-ELISA)” value was 0.4 and the “Binding of serum SARS-green to looped/cyclic peptide (PEPSCAN-ELISA)” value came to 0.2. Besides, in test [1], the “Binding of serum SARS-yellow to looped/cyclic peptide (PEPSCAN-ELISA)” value stood at 0.4; the “Recognition of the peptide by sera of SARS-CoV infected individuals, and form (linear, looped/cyclic) in which it is recognized” value was “recognized in linear form”. Also, in test [2], the “Binding of Control Serum Blood-Bank to Looped peptides” value is on record as 0.7, the “Binding of Control serum Blood-bank to linear peptides” value was 0.4, the “Binding of Control serum LUMC to linear peptides” value was 0.3 and the “Binding of Control serum LUMC to looped peptides” value stood at 0.7. Moreover, in test [3], the “Binding of a rabbit serum to linear peptides” value was 0.1 and the “Binding of a rabbit serum to looped peptides” value came out at 0.7.

Take CWKCKSKNPLLYDAN: in test [1], the “Binding of serum 1a to looped/cyclic peptide (PEPSCAN-ELISA)” value stood at 0.7, the “Binding of serum 1b to looped/cyclic peptide (PEPSCAN-ELISA)” value amounted to 0.6, the “Binding of serum 2 to looped/cyclic peptide (PEPSCAN-ELISA)” value is recorded as 0.5 and the “Binding of serum 6 to looped/cyclic peptide (PEPSCAN-ELISA)” value is reported as 0.4. Further, in test [1], the “Binding of serum 37 to looped/cyclic peptide (PEPSCAN-ELISA)” value worked out at 0.7, the “Binding of serum 62 to looped/cyclic peptide (PEPSCAN-ELISA)” value was determined as 0.6, the “Binding of serum London to looped/cyclic peptide (PEPSCAN-ELISA)” value is 0.3 and the “Binding of serum SARS-green to looped/cyclic peptide (PEPSCAN-ELISA)” value was determined as 0.2. Further, in test [1], the “Binding of serum SARS-yellow to looped/cyclic peptide (PEPSCAN-ELISA)” value was determined as 0.6; the “Recognition of the peptide by sera of SARS-CoV infected individuals, and form (linear, looped/cyclic) in which it is recognized” value is recorded as “recognized in linear form”. In test [2], the “Binding of Control Serum Blood-Bank to Looped peptides” value was determined as 0.7, the “Binding of Control serum Blood-bank to linear peptides” value was found to be 0.7, the “Binding of Control serum LUMC to linear peptides” value is reported as 0.8 and the “Binding of Control serum LUMC to looped peptides” value came out at 0.7. Also, in test [3], the “Binding of a rabbit serum to linear peptides” value is 0.1 and the “Binding of a rabbit serum to looped peptides” value was 0.5.

On to DFQVTIAEILIIIMR, for which, in test [1], the “Binding of serum 1a to linear peptides of protein X3 of SARS-CoV Urbani” value is reported as 0.7, the “Binding of serum 1a to looped/cyclic peptides of protein X3 of SARS-CoV Urbani” value is listed as 0.7, the “Binding of serum 1b to linear peptides of protein X3 of SARS-CoV Urbani” value came to 0.5 and the “Binding of serum 1b to looped/cyclic peptides of protein X3 of SARS-CoV Urbani” value turned out to be 0.4. For the same sequence, in test [1], the “Binding of serum 2 to linear peptides of protein X3 of SARS-CoV Urbani” value was found to be 0.6, the “Binding of serum 2 to looped/cyclic peptides of protein X3 of SARS-CoV Urbani” value is on record as 0.7, the “Binding of serum 6 to linear peptides of protein X3 of SARS-CoV Urbani” value was determined as 0.5 and the “Binding of serum 6 to looped/cyclic peptides of protein X3 of SARS-CoV Urbani” value worked out at 0.4. Moreover, in test [1], the “Binding of serum 37 to linear peptides of protein X3 of SARS-CoV Urbani” value came to 0.6, the “Binding of serum 37 to looped/cyclic peptides of protein X3 of SARS-CoV Urbani” value is given as 0.7, the “Binding of serum 62 to linear peptides of protein X3 of SARS-CoV Urbani” value turned out to be 0.6 and the “Binding of serum 62 to looped/cyclic peptides of protein X3 of SARS-CoV Urbani” value is 0.5. For the same sequence, in test [1], the “Binding of serum London to linear peptides of protein X3 of SARS-CoV Urbani” value is on record as 0.6, the “Binding of serum London to looped/cyclic peptides of protein X3 of SARS-CoV Urbani” value is 0.2, the “Binding of serum SARS-green to linear peptides of protein X3 of SARS-CoV Urbani” value was 0.4 and the “Binding of serum SARS-green to looped/cyclic peptides of protein X3 of SARS-CoV Urbani” value turned out to be 0.2. Besides, in test [1], the “Binding of serum SARS-yellow to linear peptides of protein X3 of SARS-CoV Urbani” value amounted to 0.5 and the “Binding of serum SARS-yellow to looped/cyclic peptides of protein X3 of SARS-CoV Urbani” value is given as 0.7. Also, in test [2], the “Binding of Control Serum Blood-Bank to Looped peptides of the protein X3 of SARS-CoV Urbani” value is listed as 0.8, the “Binding of Control serum Blood-bank to linear peptides of the protein X3 of SARS-CoV Urbani” value is on record as 0.8, the “Binding of Control serum LUMC to linear peptides of the protein X3 of SARS-CoV Urbani” value is on record as 0.6 and the “Binding of Control serum LUMC to looped peptides of the protein X3 of SARS-CoV Urbani” value came to 0.7. In test [3], the “Rabbit serum linear peptides” value was found to be 0.3 and the “Rabbit serum looped peptides” value is 0.3.

Turning to DIKDLPKEITVATSR, in test [1], the “Binding of serum 1a to linear peptides of protein M of SARS-CoV Urbani” value amounted to 0.7, the “Binding of serum 1a to looped/cyclic peptides of protein M of SARS-CoV Urbani” value turned out to be 0.6, the “Binding of serum 1b to linear peptides of protein M of SARS-CoV Urbani” value was 0.5 and the “Binding of serum 1b to looped/cyclic peptides of protein M of SARS-CoV Urbani” value came out at 0.6. Moreover, in test [1], the “Binding of serum 2 to linear peptides of protein M of SARS-CoV Urbani” value was 0.5, the “Binding of serum 2 to looped/cyclic peptides of protein M of SARS-CoV Urbani” value is on record as 0.7, the “Binding of serum 6 to linear peptides of protein M of SARS-CoV Urbani” value is 0.5 and the “Binding of serum 6 to looped/cyclic peptides of protein M of SARS-CoV Urbani” value is given as 0.8. For the same sequence, in test [1], the “Binding of serum 37 to linear peptides of protein M of SARS-CoV Urbani” value is given as 0.6, the “Binding of serum 37 to looped/cyclic peptides of protein M of SARS-CoV Urbani” value stood at 0.9, the “Binding of serum 62 to linear peptides of protein M of SARS-CoV Urbani” value came to 0.5 and the “Binding of serum 62 to looped/cyclic peptides of protein M of SARS-CoV Urbani” value was 0.7. Also, in test [1], the “Binding of serum London to linear peptides of protein M of SARS-CoV Urbani” value is reported as 0.4, the “Binding of serum London to looped/cyclic peptides of protein M of SARS-CoV Urbani” value is 0.3, the “Binding of serum SARS-green to linear peptides of protein M of SARS-CoV Urbani” value worked out at 0.5 and the “Binding of serum SARS-green to looped/cyclic peptides of protein M of SARS-CoV Urbani” value is reported as 0.4. In test [1], the “Binding of serum SARS-yellow to linear peptides of protein M of SARS-CoV Urbani” value turned out to be 0.2 and the “Binding of serum SARS-yellow to looped/cyclic peptides of protein M of SARS-CoV Urbani” value came to 0.7. Further, in test [2], the “Binding of Control Serum Blood-Bank to Looped peptides of the protein M of SARS-CoV Urbani” value stood at 0.8, the “Binding of Control serum Blood-bank to linear peptides of the protein M of SARS-CoV Urbani” value came to 0.6, the “Binding of Control serum LUMC to linear peptides of the protein M of SARS-CoV Urbani” value amounted to 0.5 and the “Binding of Control serum LUMC to looped peptides of the protein M of SARS-CoV Urbani” value is listed as 0.9. In test [3], the “Rabbit serum linear peptides” value amounted to 0.2 and the “Rabbit serum looped peptides” value is listed as 0.3.
